Molecules are shown by their SMILES. Some results are limits rather than exact numbers.

What all share (type): physicochemical
One data set can be described thus: Solubility of Compound 1.
A short description of another data set: log p of Compound 1.
A short description of data set [1]: Thermal gravimetric analysis (TGA). To be noted: elevated temperatures below 200° C. How it is done:
A suitable hot melt extruder (e.g. twin screw, Leistritz Nano-16 mm or Micro-18 mm) is set up with the appropriate supporting equipment, including a cooling conveyor (e.g., Domer model 220M060600D0169 or Nara TBC-309-DC) and feeder with auger (e.g., K-Tron Gravimeteric Feeder e.g., with dual flight 20 mm auger). Example processing parameters are as follows: feed rate: 2.0 kg/hr; screw speed: 250 rpm; and barrel temperature: 170, 140, 90, 50° C. or 1.0 kg/hr; screw speed: 275 rpm; and barrel temperature: 175, 140, 90, 50° C.

Molecule `C[C@@H](NC(=O)c1ncnc(N)c1Cl)c1ncc(C(=O)Nc2cc(C(F)(F)F)c(Cl)cn2)s1` [Compound 1, (R)-2-(1-(6-amino-5-chloropyrimidine-4-carboxamido)ethyl)-N-(5-chloro-4-(trifluoromethyl)pyridin-2-yl)thiazole-5-carboxamide] displayed a solubility in the data set “Solubility of Compound 1” of less than 1000 µg/mL. In the data set “log p of Compound 1”, this molecule showed a logP of 3.63. For the same molecule, the “thermal stability by TGA” value in data set [1] is given as “relatively stable”.

These data come from patent publication US10426782B2, “Pharmaceutical formulations of a pan-RAF kinase inhibitor and processes for their preparation” (Millennium Pharmaceuticals, Inc., priority 2014, dated 2019).
